Molecules are shown by their SMILES.

In experiment [1] the target is T1, hFASN enzyme (full length) (Homo sapiens, UniProt P49327).
T1 construct: 10 μL hFASN enzyme (full length, 300 ng, purified in house); made in house
The experiment is described as follows: Fatty Acid Synthase (FASN) Inhibition Scintillation Proximity Assay. To be noted: for IC50: mean where tested more than once, ~ = standard error of pIC50 larger than 0.5; for inhibition at 10 µM: read-out: FASN % Effect @1E−05M. In kind it is biochemical. The essentials: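 Eight compound concentrations (0.01–30 μM) tested in pH 7.5 phosphate buffer with DTT; human full-length enzyme converted [3H]-acetyl-CoA plus malonyl-CoA, with NADPH, over 60 min at room temperature. Hydrophobic [3H]-palmitate detected by bead proximity scintillation imaging; control-normalised data fitted for IC50/pIC50.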
In general terms: SPA uses beads or plates that emit light when radiolabelled molecules are held near them.

The target of experiment [2] is T2, FASN Keto-reductase Domain (Homo sapiens, UniProt P49327).
T2 construct: 10 μL hFASN enzyme (full length, 300 ng, purified in house) and 360 μM NADPH; made in house
The experiment can be described thus: Fatty Acid Synthase Keto-Reductase Domain (FASN KR) Inhibition. In kind it is biochemical. To be noted: mean where tested more than once; read-out: FASN K-R Domain pIC50 (converted). The procedure, abridged:
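Keto-reductase activity followed as NADPH consumption (A340 drop between 0 and 20 min, room temperature) using in-house full-length hFASN, 360 μM NADPH and ethyl acetoacetate substrate (180 mM stock), pH 7.5 phosphate buffer.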

Experiment [3] concerns A2780 ovarian cells. The experiment can be described thus: A2780 Ovarian Cell Proliferation Assay in Lipid Reduced Medium, without Palmitate. In kind it is cell-based. The conditions noted are these: Homo sapiens, A2780; lipid reduced medium, without palmitate, 96 h, MTT; read-out: Proliferation A2780 w/o Palmitate pIC50 (converted). The essentials: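 A2780 cells were seeded in 10% FCS medium and switched next day to 10% lipid-reduced serum without palmitate. Compounds at 0.01–30 μM were added with 0.2% DMSO, 0.2% fatty-acid-free BSA and 0.25% ethanol final. After 96 h, MTT absorbance at 544 nm was normalized to plate controls, and IC50/pIC50 came from a 4-parameter logistic fit.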

Experiment [4] deals with A2780 ovarian cells. The experiment is described as follows: A2780 Ovarian Cell Proliferation Assay in Lipid Reduced Medium, with Palmitate (control). The class given is cell-based. To be noted: Homo sapiens, A2780; lipid reduced medium, 25 μM palmitate, 96 h, MTT; read-out: Proliferation A2780 with Palmitate pIC50 (converted). The essentials: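 Read-out was MTT absorbance at 544 nm after 96 h at 37 °C. Cells grown overnight in RPMI1640/10% FCS were moved to 10% lipid-reduced serum with compound plus palmitate (final 25 μM, 0.2% fatty-acid-free BSA, 0.2% DMSO). IC50 came from least-squares curve fitting, expressed as −log(IC50).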

T1 sequence (P49327 whole entry): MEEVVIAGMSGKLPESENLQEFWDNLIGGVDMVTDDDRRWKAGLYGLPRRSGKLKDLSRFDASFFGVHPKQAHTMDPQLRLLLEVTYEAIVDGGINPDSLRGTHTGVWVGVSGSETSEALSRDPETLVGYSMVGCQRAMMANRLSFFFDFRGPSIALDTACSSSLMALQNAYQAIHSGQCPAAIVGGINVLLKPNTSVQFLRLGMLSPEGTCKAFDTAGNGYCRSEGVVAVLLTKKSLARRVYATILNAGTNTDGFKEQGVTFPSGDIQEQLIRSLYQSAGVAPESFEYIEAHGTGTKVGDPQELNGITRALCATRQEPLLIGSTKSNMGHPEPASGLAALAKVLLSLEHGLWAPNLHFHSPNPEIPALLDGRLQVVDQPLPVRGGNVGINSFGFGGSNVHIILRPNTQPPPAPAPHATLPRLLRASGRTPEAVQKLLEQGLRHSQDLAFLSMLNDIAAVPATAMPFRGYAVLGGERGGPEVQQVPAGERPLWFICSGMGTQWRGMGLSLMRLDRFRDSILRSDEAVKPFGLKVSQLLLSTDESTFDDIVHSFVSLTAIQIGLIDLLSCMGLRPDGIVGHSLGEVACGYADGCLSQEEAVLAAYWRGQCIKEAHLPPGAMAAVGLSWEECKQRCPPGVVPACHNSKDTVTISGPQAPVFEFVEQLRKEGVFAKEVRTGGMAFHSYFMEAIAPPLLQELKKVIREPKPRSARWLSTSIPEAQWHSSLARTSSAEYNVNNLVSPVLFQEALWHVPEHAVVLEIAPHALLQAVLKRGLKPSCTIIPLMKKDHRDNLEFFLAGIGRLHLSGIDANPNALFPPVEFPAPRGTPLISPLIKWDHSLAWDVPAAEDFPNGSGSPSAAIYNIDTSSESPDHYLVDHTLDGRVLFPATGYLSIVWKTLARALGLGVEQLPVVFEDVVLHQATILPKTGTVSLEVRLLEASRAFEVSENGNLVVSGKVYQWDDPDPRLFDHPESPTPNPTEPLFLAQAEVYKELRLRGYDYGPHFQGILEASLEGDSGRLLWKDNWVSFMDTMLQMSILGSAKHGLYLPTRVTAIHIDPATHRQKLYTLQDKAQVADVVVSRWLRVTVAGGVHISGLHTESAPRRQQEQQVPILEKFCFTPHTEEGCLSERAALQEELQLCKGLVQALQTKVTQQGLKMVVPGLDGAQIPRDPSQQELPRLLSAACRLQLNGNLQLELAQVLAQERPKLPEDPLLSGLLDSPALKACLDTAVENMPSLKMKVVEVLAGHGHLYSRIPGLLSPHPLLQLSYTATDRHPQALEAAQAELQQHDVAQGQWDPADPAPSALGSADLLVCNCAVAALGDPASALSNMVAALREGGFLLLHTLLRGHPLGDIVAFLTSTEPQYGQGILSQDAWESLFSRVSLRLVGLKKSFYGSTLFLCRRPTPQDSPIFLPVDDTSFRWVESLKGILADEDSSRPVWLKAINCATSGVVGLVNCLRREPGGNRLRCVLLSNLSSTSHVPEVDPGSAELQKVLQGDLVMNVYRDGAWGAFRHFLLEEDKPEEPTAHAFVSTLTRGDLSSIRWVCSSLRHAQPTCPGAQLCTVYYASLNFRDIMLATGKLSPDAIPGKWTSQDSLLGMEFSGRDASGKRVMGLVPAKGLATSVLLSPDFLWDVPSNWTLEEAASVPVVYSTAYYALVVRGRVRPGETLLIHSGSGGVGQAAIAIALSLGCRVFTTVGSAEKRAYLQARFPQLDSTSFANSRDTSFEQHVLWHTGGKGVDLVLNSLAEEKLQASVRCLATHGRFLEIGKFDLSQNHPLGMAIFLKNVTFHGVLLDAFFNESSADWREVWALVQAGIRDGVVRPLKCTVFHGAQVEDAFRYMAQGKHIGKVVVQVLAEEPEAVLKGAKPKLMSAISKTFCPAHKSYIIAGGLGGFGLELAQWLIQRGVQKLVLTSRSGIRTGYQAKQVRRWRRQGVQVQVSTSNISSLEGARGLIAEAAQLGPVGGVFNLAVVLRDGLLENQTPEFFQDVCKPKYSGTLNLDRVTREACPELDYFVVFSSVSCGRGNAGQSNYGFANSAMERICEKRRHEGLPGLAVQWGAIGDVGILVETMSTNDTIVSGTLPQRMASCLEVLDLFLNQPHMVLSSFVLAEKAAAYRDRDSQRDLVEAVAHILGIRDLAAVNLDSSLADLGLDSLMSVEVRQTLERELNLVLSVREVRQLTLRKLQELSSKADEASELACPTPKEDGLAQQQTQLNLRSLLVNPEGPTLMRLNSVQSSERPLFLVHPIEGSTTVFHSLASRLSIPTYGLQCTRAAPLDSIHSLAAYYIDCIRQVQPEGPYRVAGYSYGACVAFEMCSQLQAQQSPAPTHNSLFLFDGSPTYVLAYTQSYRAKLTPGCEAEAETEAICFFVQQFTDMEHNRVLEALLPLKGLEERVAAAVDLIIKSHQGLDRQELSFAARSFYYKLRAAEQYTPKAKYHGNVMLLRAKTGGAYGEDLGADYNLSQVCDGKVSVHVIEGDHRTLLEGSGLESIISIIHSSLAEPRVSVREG
T2 sequence (P49327 whole entry, the tested form may be a part): as the sequence (P49327 whole entry) above

Regarding `Cn1cc(-c2ccc(C3CCN(C(=O)c4ccc(OCc5ccccc5)c(NC(=O)c5ccc(Cl)nc5)c4)CC3)cc2)cn1` [Compound 262, N-(2-(benzyloxy)-5-(4-(4-(1-methyl-1H-pyrazol-4-yl)phenyl)piperidine-1-carbonyl)phenyl)-6-chloronicotinamide], the IC50 in experiment [1] is 263 nM; in experiment [2], 1050 nM; with A2780 ovarian cells [3] it was 617 nM; in the experiment on A2780 ovarian cells [4] it was more than 10000 nM. In experiment [1], the inhibition at 10 µM was 89%.

Regarding `CC(C)Nc1ccc(C(=O)Nc2cc(C(=O)N3CCC(c4ccc(-c5ccnn5C)cc4)CC3)ccc2Cl)cn1` [Compound 70, N-(2-chloro-5-(4-(4-(1-methyl-1H-pyrazol-5-yl)phenyl)piperidine-1-carbonyl)phenyl)-6-(isopropylamino)nicotinamide], the IC50 was 56.2 nM in experiment [1], 245 nM in experiment [2], 437 nM with A2780 ovarian cells [3] and 3550 nM in the experiment on A2780 ovarian cells [4]. Further, the inhibition at 10 µM in experiment [1] was found to be 109%.

Turning to `Cc1ccc(C(=O)N2CC(c3ccc(-c4cnn(C)c4)cc3)C2)cc1NC(=O)c1ccncc1` [Compound 139, N-(2-methyl-5-(3-(4-(1-methyl-1H-pyrazol-4-yl)phenyl)azetidine-1-carbonyl)phenyl)isonicotinamide], the IC50 in experiment [1] is 31.6 nM; in experiment [2] it was 95.5 nM; in the experiment with A2780 ovarian cells [3], 97.7 nM; in the experiment on A2780 ovarian cells [4], more than 10000 nM. The inhibition at 10 µM in experiment [1] is 101%.

Regarding `Cc1ccc(C(=O)N2CC(c3ccc(-c4ccnn4C)cc3)C2)cc1NC(=O)c1ccc2ccccc2n1` [Compound 55, N-(2-methyl-5-(3-(4-(1-methyl-1H-pyrazol-5-yl)phenyl)azetidine-1-carbonyl)phenyl)quinoline-2-carboxamide], the IC50 in experiment [1] was 437 nM; in experiment [2] it was 513 nM; in the experiment on A2780 ovarian cells [3] it was approximately 77.6 nM; in the experiment on A2780 ovarian cells [4] it was approximately 85.1 nM. Besides, in experiment [1], the inhibition at 10 µM came to 86%.

With `Cc1ccc(C(=O)N2CCC(c3ccc(-c4cnn(C)c4)cc3)CC2)cc1NC(=O)C1CN(C(=O)C2CC2)C1` [Compound 219, 1-(cyclopropanecarbonyl)-N-(2-methyl-5-(4-(4-(1-methyl-1H-pyrazol-4-yl)phenyl)piperidine-1-carbonyl)phenyl)azetidine-3-carboxamide], the IC50 in experiment [1] is 64.6 nM; in experiment [2] it was 200 nM; with A2780 ovarian cells [3] it was 234 nM; in the experiment with A2780 ovarian cells [4], more than 10000 nM. In experiment [1], the inhibition at 10 µM was 116%.

For `Cc1ccc(C(=O)N2CC(c3ccc(-c4cccnc4)cc3)C2)cc1NC(=O)c1ccc(NC(C)C)nc1` [Compound 10, 6-(isopropylamino)-N-(2-methyl-5-(3-(4-(pyridin-3-yl)phenyl)azetidine-1-carbonyl)phenyl)nicotinamide], the IC50 in experiment [1] is 32.4 nM; in experiment [2] it was 44.7 nM; in the experiment on A2780 ovarian cells [3], approximately 57.5 nM; with A2780 ovarian cells [4] it was more than 15100 nM. Further, in experiment [1], the inhibition at 10 µM was 103%.

For `Cc1ccc(C(=O)N2CCC(c3ccc(-c4cnn(C)c4)cc3)CC2)cc1NC(=O)C1CCN(C2CCC2)CC1` [Compound 209, 1-cyclobutyl-N-(2-methyl-5-(4-(4-(1-methyl-1H-pyrazol-4-yl)phenyl)piperidine-1-carbonyl)phenyl)piperidine-4-carboxamide], the IC50 in experiment [1] was 31.6 nM; in experiment [2], 74.1 nM; in the experiment on A2780 ovarian cells [3] it was 10 nM; with A2780 ovarian cells [4], more than 10000 nM. Also, the inhibition at 10 µM in experiment [1] came to 105%.

As to `Cc1ccc(C(=O)N2CC(c3ccc(-c4cnn(C)c4)cc3)C2)cc1NC(=O)c1ccc(N(C)C2CCN(C)CC2)nc1` [Compound 140, 6-(methyl(1-methylpiperidin-4-yl)amino)-N-(2-methyl-5-(3-(4-(1-methyl-1H-pyrazol-4-yl)phenyl)azetidine-1-carbonyl)phenyl)nicotinamide], the IC50 in experiment [1] was 15.8 nM; in experiment [2] it was 39.8 nM; in the experiment on A2780 ovarian cells [3], approximately 23.4 nM; in the experiment on A2780 ovarian cells [4] it was 7760 nM. Besides, the inhibition at 10 µM in experiment [1] is 114%.

Regarding `Cc1ccc(C(=O)N2CCC(c3ccc(-c4cnn(C)c4)cc3)CC2)cc1NC(=O)C1CCN(C)CC1` [Compound 169, 1-methyl-N-(2-methyl-5-(4-(4-(1-methyl-1H-pyrazol-4-yl)phenyl)piperidine-1-carbonyl)phenyl)piperidine-4-carboxamide], the IC50 in experiment [1] is 70.8 nM; in experiment [2], 191 nM; in the experiment with A2780 ovarian cells [3] it was 77.6 nM; with A2780 ovarian cells [4], more than 10000 nM. Also, the inhibition at 10 µM in experiment [1] stood at 106%.

In the case of `Cc1ccc(C(=O)N2CC(c3ccc(-c4ccnn4C)cc3)C2)cc1NC(=O)c1ccc(NC(C)C)nc1` [Compound 25, 6-(isopropylamino)-N-(2-methyl-5-(3-(4-(1-methyl-1H-pyrazol-5-yl)phenyl)azetidine-1-carbonyl)phenyl)nicotinamide], the IC50 was 28.2 nM in experiment [1], 45.7 nM in experiment [2], 34.7 nM in the experiment on A2780 ovarian cells [3] and approximately 2090 nM in the experiment on A2780 ovarian cells [4]. Besides, the inhibition at 10 µM in experiment [1] turned out to be 109%.

Consider `Cc1ccc(C(=O)N2CCC(c3ccc(-c4cnn(C)c4)cc3)CC2)cc1NC(=O)C(C)(C)C` [Compound 87, N-(2-methyl-5-(4-(4-(1-methyl-1H-pyrazol-4-yl)phenyl)piperidine-1-carbonyl)phenyl)pivalamide], for which the IC50 in experiment [1] was 182 nM; in experiment [2], 288 nM; in the experiment with A2780 ovarian cells [3] it was 575 nM; in the experiment with A2780 ovarian cells [4] it was more than 10000 nM. Also, the inhibition at 10 µM in experiment [1] was found to be 96%.

As for `Cc1ccc(C(=O)N2CCC(c3ccc(-c4cnn(C)c4)cc3)CC2)cc1NC(=O)c1cccnc1Cl` [Compound 101, 2-Chloro-N-(2-methyl-5-(4-(4-(1-methyl-1H-pyrazol-4-yl)phenyl)piperidine-1-carbonyl)phenyl)nicotinamide], the IC50 in experiment [1] is 47.9 nM; in experiment [2], 155 nM; with A2780 ovarian cells [3] it was 91.2 nM; with A2780 ovarian cells [4], more than 10000 nM. The inhibition at 10 µM in experiment [1] worked out at 105%.

Take `Cc1ccc(C(=O)N2CCC(c3ccc(-n4ccnc4)cc3)C(C)(C)C2)cc1NC(=O)c1ccc(NC(C)C)nc1` (stereo not shown) [Compound #43, N-(5-(4-(4-(1H-imidazol-1-yl)phenyl)-3,3-dimethylpiperidine-1-carbonyl)-2-methylphenyl)-6-(isopropylamino)nicotinamide]: the IC50 is 44.7 nM in experiment [1], 69.2 nM in experiment [2], 132 nM in the experiment on A2780 ovarian cells [3] and more than 10000 nM in the experiment with A2780 ovarian cells [4]. Besides, the inhibition at 10 µM in experiment [1] came to 106%.

In the case of `Cc1ccc(C(=O)N2CCC(c3ccc(-c4cnn(C5CCC5)c4)cc3)CC2)cc1NC(=O)c1ccc(NC(C)C)nc1` [Compound 248, N-(5-(4-(4-(1-cyclobutyl-1H-pyrazol-4-yl)phenyl)piperidine-1-carbonyl)-2-methylphenyl)-6-(isopropylamino)nicotinamide], the IC50 is 43.7 nM in experiment [1], 93.3 nM in experiment [2], 35.5 nM with A2780 ovarian cells [3] and 3550 nM in the experiment on A2780 ovarian cells [4]. Also, the inhibition at 10 µM in experiment [1] was 108%.

Consider `CCCN1CCC(C(=O)Nc2cc(C(=O)N3CCC(c4ccc(-c5cnn(C)c5)cc4)CC3)ccc2C)C1` (stereo not shown) [Compound 186, N-(2-methyl-5-(4-(4-(1-methyl-1H-pyrazol-4-yl)phenyl)piperidine-1-carbonyl)phenyl)-1-propylpyrrolidine-3-carboxamide], for which the IC50 in experiment [1] is 95.5 nM; in experiment [2], 331 nM; in the experiment on A2780 ovarian cells [3], approximately 195 nM; with A2780 ovarian cells [4], more than 10000 nM. Also, in experiment [1], the inhibition at 10 µM turned out to be 106%.

`Cc1ccc(C(=O)N2CCC(c3ccc(-c4ccccc4C)cc3)CC2)cc1NC(=O)c1ccc(NC(C)C)nc1` [Compound 232, 6-(isopropylamino)-N-(2-methyl-5-(4-(2′-methyl-[1,1′-biphenyl]-4-yl)piperidine-1-carbonyl)phenyl)nicotinamide]: the IC50 in experiment [1] was 324 nM; in experiment [2], 490 nM; with A2780 ovarian cells [3], 389 nM; in the experiment on A2780 ovarian cells [4] it was 6610 nM. In experiment [1], the inhibition at 10 µM came to 85%.

Regarding `Cc1ccc(C(=O)N2CCC(c3ccc(-c4cnn(C)c4)cc3)CC2)cc1NC(=O)C1CN(C2CCCC2)C1` [Compound 187, 1-cyclopentyl-N-(2-methyl-5-(4-(4-(1-methyl-1H-pyrazol-4-yl)phenyl)piperidine-1-carbonyl)phenyl)azetidine-3-carboxamide], the IC50 in experiment [1] was 141 nM; in experiment [2], 302 nM; in the experiment with A2780 ovarian cells [3], approximately 282 nM; with A2780 ovarian cells [4], more than 10000 nM. For the same molecule, in experiment [1], the inhibition at 10 µM amounted to 103%.

The values are drawn from patent publication US9562035B2, “Benzamide derivative useful as FASN inhibitors for the treatment of cancer” (Janssen Pharmaceutica NV, priority 2013, dated 2017).
